Results taken from the NIST ThermoML archive (doi:10.1016/j.jct.2010.05.002).
Numbers after ± are expanded uncertainties.

Assay: Molar enthalpy of transition or fusion
Conditions: Crystal; Adiabatic calorimetry

| Compound | Molar enthalpy of transition or fusion |
| --- | --- |
| Cc1ccc(-c2ccccc2)cc1 [4-methylbiphenyl] | 2.94 ± 0.0669 kcal/mol |
| CC(C)(C)c1ccc(-c2ccccc2)cc1 [4-(1,1-dimethylethyl)-1,1'-biphenyl] | 4.75 ± 0.163 kcal/mol |
